Assay results taken from ChEMBL document CHEMBL4610054, “Design, synthesis, and structure-activity relationship studies of novel triazole agents with strong antifungal activity against Aspergillus fumigatus” (2020).
In brackets after ≈: the same amount, converted by molar mass.

Experiments:
Format in all cases: functional
Cryptococcus neoformans = assay: Antifungal activity against Cryptococcus neoformans 32605 by NCCLS protocol based broth microdilution assay
Aspergillus fumigatus = assay: Antifungal activity against Aspergillus fumigatus 7544 by NCCLS protocol based broth microdilution assay
Candida albicans [1] = assay: Antifungal activity against Candida albicans SC5314 by NCCLS protocol based broth microdilution assay
Candida albicans [2] = assay: Antifungal activity against fluconazole-resistant Candida albicans isolate 100 by NCCLS protocol based broth microdilution method
Candida parapsilosis = assay: Antifungal activity against Candida parapsilosis 22019 by NCCLS protocol based broth microdilution assay; conditions: Lodderomyces parapsilosis
Candida albicans [3] = assay: Antifungal activity against Candida albicans Y0109 by NCCLS protocol based broth microdilution assay
Candida albicans [4] = assay: Antifungal activity against fluconazole-resistant Candida albicans isolate 103 by NCCLS protocol based broth microdilution method
Nakaseomyces glabratus = assay: Antifungal activity against Candida glabrata 537 by NCCLS protocol based broth microdilution assay
Nannizzia gypsea = assay: Antifungal activity against Microsporum gypseum CMCC by NCCLS protocol based broth microdilution assay

Compound	MIC (Cryptococcus neoformans) [µg/mL]	MIC (Aspergillus fumigatus) [µg/mL]	MIC (Candida albicans [1]) [µg/mL]	MIC (Candida albicans [2]) [µg/mL]	MIC (Candida parapsilosis) [µg/mL]	MIC (Candida albicans [3]) [µg/mL]	MIC (Candida albicans [4]) [µg/mL]	MIC (Nakaseomyces glabratus) [µg/mL]	MIC (Nannizzia gypsea) [µg/mL]
C[C@@H](n1nnc2ccc(Br)cc2c1=O)[C@](O)(Cn1cncn1)c1ccc(F)cc1F	2 (≈ 4.19 µM)	> 64	0.125 (≈ 0.262 µM)	–	–	–	–	–	–
C[C@@H](n1nnc2cc(I)ccc2c1=O)[C@](O)(Cn1cncn1)c1ccc(F)cc1F	0.125 (≈ 0.238 µM)	1 (≈ 1.91 µM)	0.0156 (≈ 0.0298 µM)	> 64	0.0625 (≈ 0.119 µM)	0.0156 (≈ 0.0298 µM)	> 64	0.0313 (≈ 0.0597 µM)	1 (≈ 1.91 µM)
C[C@@H](n1nnc2c(F)cccc2c1=O)[C@](O)(Cn1cncn1)c1ccc(F)cc1F	0.0313 (≈ 0.0752 µM)	> 64	0.5 (≈ 1.2 µM)	–	–	–	–	–	–
C[C@@H](n1nnc2cc(F)ccc2c1=O)[C@](O)(Cn1cncn1)c1ccc(F)cc1F	0.25 (≈ 0.6 µM)	1 (≈ 2.4 µM)	0.0156 (≈ 0.0375 µM)	32 (≈ 76.9 µM)	0.0313 (≈ 0.0752 µM)	0.0156 (≈ 0.0375 µM)	64 (≈ 154 µM)	0.0313 (≈ 0.0752 µM)	2 (≈ 4.8 µM)
C[C@@H](n1nnc2cc(Cl)c(F)cc2c1=O)[C@](O)(Cn1cncn1)c1ccc(F)cc1F	0.25 (≈ 0.555 µM)	8 (≈ 17.7 µM)	0.125 (≈ 0.277 µM)	–	–	–	–	–	–
C[C@@H](n1nnc2c(Cl)cccc2c1=O)[C@](O)(Cn1cncn1)c1ccc(F)cc1F	0.25 (≈ 0.578 µM)	> 64	0.25 (≈ 0.578 µM)	–	–	–	–	–	–
Cc1ccc2nnn([C@H](C)[C@](O)(Cn3cncn3)c3ccc(F)cc3F)c(=O)c2c1	0.25 (≈ 0.606 µM)	16 (≈ 38.8 µM)	0.0625 (≈ 0.152 µM)	–	–	–	–	–	–
C[C@@H](n1nnc2cc(Br)ccc2c1=O)[C@](O)(Cn1cncn1)c1ccc(F)cc1F	0.0625 (≈ 0.131 µM)	0.5 (≈ 1.05 µM)	0.0156 (≈ 0.0327 µM)	16 (≈ 33.5 µM)	0.0313 (≈ 0.0656 µM)	0.0156 (≈ 0.0327 µM)	32 (≈ 67 µM)	0.0156 (≈ 0.0327 µM)	0.5 (≈ 1.05 µM)
C[C@@H](n1nnc2cc([N+](=O)[O-])ccc2c1=O)[C@](O)(Cn1cncn1)c1ccc(F)cc1F	0.25 (≈ 0.564 µM)	4 (≈ 9.02 µM)	0.0156 (≈ 0.0352 µM)	–	0.0313 (≈ 0.0706 µM)	0.0156 (≈ 0.0352 µM)	–	0.0313 (≈ 0.0706 µM)	4 (≈ 9.02 µM)
C[C@@H](n1nnc2cccc(Br)c2c1=O)[C@](O)(Cn1cncn1)c1ccc(F)cc1F	0.0625 (≈ 0.131 µM)	32 (≈ 67 µM)	0.25 (≈ 0.524 µM)	–	–	–	–	–	–
C[C@@H](n1nnc2ccc([N+](=O)[O-])cc2c1=O)[C@](O)(Cn1cncn1)c1ccc(F)cc1F	2 (≈ 4.51 µM)	> 64	0.5 (≈ 1.13 µM)	–	–	–	–	–	–
C[C@@H](n1nnc2ccccc2c1=O)[C@](O)(Cn1cncn1)c1ccc(F)cc1F	0.25 (≈ 0.628 µM)	4 (≈ 10 µM)	0.0313 (≈ 0.0786 µM)	–	0.0313 (≈ 0.0786 µM)	0.0156 (≈ 0.0392 µM)	–	0.0625 (≈ 0.157 µM)	2 (≈ 5.02 µM)
C[C@@H](c1ncncc1F)[C@](O)(Cn1cncn1)c1ccc(F)cc1F [VORICONAZOLE]	0.0625 (≈ 0.179 µM)	0.25 (≈ 0.716 µM)	0.0313 (≈ 0.0896 µM)	> 64	0.0156 (≈ 0.0447 µM)	0.0156 (≈ 0.0447 µM)	> 64	0.0156 (≈ 0.0447 µM)	0.25 (≈ 0.716 µM)
C[C@@H](n1nnc2ccc(Cl)cc2c1=O)[C@](O)(Cn1cncn1)c1ccc(F)cc1F	0.5 (≈ 1.16 µM)	> 64	0.0313 (≈ 0.0723 µM)	–	–	–	–	–	–
COc1ccc2c(=O)n([C@H](C)[C@](O)(Cn3cncn3)c3ccc(F)cc3F)nnc2c1	0.125 (≈ 0.292 µM)	2 (≈ 4.67 µM)	0.0156 (≈ 0.0364 µM)	–	0.0313 (≈ 0.0731 µM)	0.0156 (≈ 0.0364 µM)	–	0.0156 (≈ 0.0364 µM)	2 (≈ 4.67 µM)
C[C@@H](n1nnc2cc(Cl)ccc2c1=O)[C@](O)(Cn1cncn1)c1ccc(F)cc1F	0.0313 (≈ 0.0723 µM)	0.25 (≈ 0.578 µM)	0.0156 (≈ 0.036 µM)	8 (≈ 18.5 µM)	0.0156 (≈ 0.036 µM)	0.0156 (≈ 0.036 µM)	2 (≈ 4.62 µM)	0.0156 (≈ 0.036 µM)	0.25 (≈ 0.578 µM)
C[C@@H](n1nnc2cccc(F)c2c1=O)[C@](O)(Cn1cncn1)c1ccc(F)cc1F	0.0625 (≈ 0.15 µM)	> 64	0.5 (≈ 1.2 µM)	–	–	–	–	–	–
C[C@@H](n1nnc2cc(C(F)(F)F)ccc2c1=O)[C@](O)(Cn1cncn1)c1ccc(F)cc1F	0.125 (≈ 0.268 µM)	4 (≈ 8.58 µM)	0.0156 (≈ 0.0334 µM)	–	0.0313 (≈ 0.0671 µM)	0.0156 (≈ 0.0334 µM)	–	0.0313 (≈ 0.0671 µM)	2 (≈ 4.29 µM)
COc1ccc2nnn([C@H](C)[C@](O)(Cn3cncn3)c3ccc(F)cc3F)c(=O)c2c1	1 (≈ 2.33 µM)	32 (≈ 74.7 µM)	0.0625 (≈ 0.146 µM)	–	–	–	–	–	–
OC(Cn1cncn1)(Cn1cncn1)c1ccc(F)cc1F [FLUCONAZOLE]	0.5 (≈ 1.63 µM)	> 64	0.5 (≈ 1.63 µM)	> 64	1 (≈ 3.27 µM)	0.5 (≈ 1.63 µM)	> 64	2 (≈ 6.53 µM)	32 (≈ 104 µM)
C[C@@H](n1nnc2cc(F)c(F)cc2c1=O)[C@](O)(Cn1cncn1)c1ccc(F)cc1F	0.5 (≈ 1.15 µM)	2 (≈ 4.6 µM)	0.0313 (≈ 0.0721 µM)	–	0.0313 (≈ 0.0721 µM)	0.0156 (≈ 0.0359 µM)	–	0.0625 (≈ 0.144 µM)	1 (≈ 2.3 µM)
C[C@@H](n1nnc2ccc(C(F)(F)F)cc2c1=O)[C@](O)(Cn1cncn1)c1ccc(F)cc1F	2 (≈ 4.29 µM)	> 64	0.25 (≈ 0.536 µM)	–	–	–	–	–	–
C[C@@H](n1nnc2c(ccc3ccccc32)c1=O)[C@](O)(Cn1cncn1)c1ccc(F)cc1F	0.5 (≈ 1.11 µM)	> 64	0.125 (≈ 0.279 µM)	–	–	–	–	–	–
C[C@@H](n1nnc2cccc(Cl)c2c1=O)[C@](O)(Cn1cncn1)c1ccc(F)cc1F	0.0625 (≈ 0.144 µM)	32 (≈ 73.9 µM)	0.25 (≈ 0.578 µM)	–	–	–	–	–	–
C[C@@H](n1cnc2cc(Cl)ccc2c1=O)[C@](O)(Cn1cncn1)c1ccc(F)cc1F [ALBACONAZOLE]	0.0313 (≈ 0.0725 µM)	0.25 (≈ 0.579 µM)	0.0313 (≈ 0.0725 µM)	8 (≈ 18.5 µM)	0.0156 (≈ 0.0361 µM)	0.0156 (≈ 0.0361 µM)	4 (≈ 9.26 µM)	0.0625 (≈ 0.145 µM)	1 (≈ 2.32 µM)
C[C@@H](n1nnc2c(Br)cccc2c1=O)[C@](O)(Cn1cncn1)c1ccc(F)cc1F	0.25 (≈ 0.524 µM)	> 64	0.5 (≈ 1.05 µM)	–	–	–	–	–	–
C[C@@H](n1nnc2ccc(I)cc2c1=O)[C@](O)(Cn1cncn1)c1ccc(F)cc1F	0.5 (≈ 0.954 µM)	32 (≈ 61 µM)	0.125 (≈ 0.238 µM)	–	–	–	–	–	–
Cc1ccc2c(=O)n([C@H](C)[C@](O)(Cn3cncn3)c3ccc(F)cc3F)nnc2c1	0.125 (≈ 0.303 µM)	2 (≈ 4.85 µM)	0.0156 (≈ 0.0378 µM)	–	0.0313 (≈ 0.0759 µM)	0.0156 (≈ 0.0378 µM)	–	0.0156 (≈ 0.0378 µM)	2 (≈ 4.85 µM)
C[C@@H](n1nnc2ccc(F)cc2c1=O)[C@](O)(Cn1cncn1)c1ccc(F)cc1F	0.25 (≈ 0.6 µM)	16 (≈ 38.4 µM)	0.0625 (≈ 0.15 µM)	–	–	–	–	–	–
